What is called chromatographic logP is lipophilicity estimated from chromatographic retention. The low end stands for lower lipophilicity, the high end for higher lipophilicity.

The structures appear in SMILES notation.

The data set can be described thus: log P by HPLC-MS. It counts as physicochemical.

On to `Fc1ccc(Cl)nc1I` [Example 1, 6-chloro-3-fluoro-2-iodopyridine], for which the chromatographic logP amounted to 2.53.
The result for `COC(=O)c1ccc(F)c(I)n1` [Example 2, methyl 5-fluoro-6-iodopyridine-2-carboxylate] reads 1.85; that for `Fc1ccc(Br)nc1I` [Example 3, 6-bromo-3-fluoro-2-iodopyridine], 2.67.

The values above are taken from patent US10766909B2, “Process for preparing halogenated pyridine derivatives” (Bayer CropScience Aktiengesellschaft, priority 2016, dated 2020).
